According to patent US20140364552A1, “AQUEOUS RESIN COMPOSITION COMPRISING FILM-FORMING AID, AND STEEL SHEET SURFACE TREATMENT AGENT CONTAINING THE SAME” (DIC Corporation, priority 2011, published 2014):

Columns and labels:
[1] = Evaluating film-forming property (cracks in cast coating film); assay type: physicochemical
Experimental: After drying for 24 hours, the film-forming property was evaluated by visual observation based on criteria below. When no crack occurred, the film-forming property was evaluated as “A”, when fine cracks slightly occurred, the film-forming property was evaluated as “B”, and when clear cracks occurred over the entire surface of the coating film, the film-forming property was evaluated as “C”.

[2] = cited from earlier work
[3] = Corrosion resistance, salt spray test JIS Z2371; assay type: physicochemical
Experimental: Each of the aqueous resin compositions immediately after preparation was applied on a galvanized steel sheet by using a film applicator so that an amount of application was 0.1 g/100 cm^2 and then dried at 80° C. for 30 seconds to form a test piece. According to a salt spray test method described in JIS Z2371, a 5 mass % aqueous sodium chloride solution was sprayed on the test piece at an ambient temperature of 35° C., and a rate of occurrence of white rust after 240 hours was measured and evaluated based on criteria below. In addition, a tape seal was attached to a portion where the aqueous resin composition was not applied (the end surfaces and back surface). When no white rust occurred, corrosion resistance was evaluated as “A”; when white rust occurred in an area of less than 5% of the whole coating area, corrosion resistance was evaluated as “B”; when white rust occurred in an area of 5% or more and less than 20% of the whole coating area, corrosion resistance was evaluated as “C”; and when white rust occurred in an area of 20% or more of the whole coating area, corrosion resistance was evaluated as “D”.

[4] = Evaluating alkali resistance of coating film on galvanized steel sheet; assay type: physicochemical
Experimental: Each of the aqueous resin compositions immediately after preparation was applied on a galvanized steel sheet by using a film applicator so that an amount of application was 0.1 g/100 cm^2 and then dried at 80° C. for 30 seconds to form a test piece. Next, 0.5 mL of a 5% aqueous sodium hydroxyl solution was dropped on the test piece which was then allowed to stand for 30 minutes. After being allowed to stand, the appearance of a coating film in a portion where the liquid adhered was evaluated based on criteria below. When no change occurred in the appearance, alkali resistance was evaluated as “A”; when the coating film was discolored black or dissolved in an area of less than 10%, alkali resistance was evaluated as “B”; when the coating film was discolored black or dissolved in an area of 10% or more and less than 30%, alkali resistance was evaluated as “C”; and when the coating film was discolored black or dissolved in an area of 30% or more, alkali resistance was evaluated as “D”.

film-forming property (in words) [1]: excellent | alkali resistance of coating film (in words) [4]: excellent
SMILES: CN1CCCC1=O [N-methyl-2-pyrrolidone]
toxicity (in words) [2]: problem of toxicity | corrosion resistance of coating film (in words) [3]: excellent
